In the first experiment the target is T1, human LPA1 (Homo sapiens, UniProt Q92633).
T1 construct: expressed in transfected cells; host or cells: Chinese hamster ovary (CHO) cells
T1 sequence (Q92633 whole entry): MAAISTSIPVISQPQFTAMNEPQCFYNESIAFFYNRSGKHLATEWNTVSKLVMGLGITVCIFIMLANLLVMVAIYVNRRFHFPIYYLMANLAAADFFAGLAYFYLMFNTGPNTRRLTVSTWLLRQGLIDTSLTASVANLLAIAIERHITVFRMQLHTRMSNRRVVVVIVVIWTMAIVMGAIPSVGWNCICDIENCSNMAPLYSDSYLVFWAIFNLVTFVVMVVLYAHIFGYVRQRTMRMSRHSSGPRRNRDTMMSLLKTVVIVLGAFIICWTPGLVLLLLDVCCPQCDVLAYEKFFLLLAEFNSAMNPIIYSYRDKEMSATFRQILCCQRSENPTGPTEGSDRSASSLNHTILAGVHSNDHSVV
The experiment is described as follows: LPA1 functional antagonist assay (calcium flux). It is filed as cell-based. To be noted: CHO cells overexpressing human LPA1; calcium flux induced by 10 nM LPA; read-out: hLPA1 IC50. Here is the method: The effectiveness of compounds of the present invention as LPA1 inhibitors can be determined in an LPA1 functional antagonist assay as follows:
The cells were then equilibrated to room temperature for 30 minutes before the assay. […] IC50 values were determined by fitting data to a 4-parameter logistic equation (GraphPad Prism, San Diego Calif.).
(Calcium flux is commonly read through the fluorescence of an indicator in the cells.)
As usually defined, the IC50 is the concentration that gives 50% inhibition. Take `Cc1nc(-c2nnn(C)c2NC(=O)OCCC(C)C)ccc1O[C@H]1CCC[C@H](C(=O)O)C1` [Example 77, (1S,3S)-3-((6-(5-(((isopentyloxy)carbonyl)amino)-1-methyl-1H-1,2,3-triazol-4-yl)-2-methylpyridin-3-yl)oxy)cyclohexane-1-carboxylic acid]: the IC50 was determined as 20 nM. Take `Cc1nc(-c2nnn(C)c2NC(=O)OCCC2CC2)ccc1O[C@H]1CCC[C@H](C(=O)O)C1` [Example 73, (1S,3S)-3-((6-(5-(((2-cyclopropyl-ethoxy)carbonyl)amino)-1-methyl-1H-1,2,3-triazol-4-yl)-2-methyl-pyridin-3-yl)oxy)cyclohexane-1-carboxylic acid]: the IC50 worked out at 11 nM. Regarding `Cc1nc(-c2nnn(C)c2CNC(=O)OCC(C)CC(F)(F)F)ccc1O[C@H]1CCC[C@H](C(=O)O)C1` (mixture of isomers) [Example 32, (1S,3S)-3-((2-methyl-6-(1-methyl-5-((((4,4,4-trifluoro-2-methylbutoxy)carbonyl)amino)methyl)-1H-1,2,3-triazol-4-yl)pyridin-3-yl)oxy)cyclo-hexane-1-carboxylic acid], the IC50 worked out at 69 nM. Turning to `CCCCCCOC(=O)NCc1c(-c2ccc(O[C@H]3CCC[C@H](C(=O)O)C3)cn2)nnn1C` [Example 13, (1S,3S)-3-((6-(5-((((hexyloxy)carbonyl)amino)methyl)-1-methyl-1H-1,2,3-triazol-4-yl)pyridin-3-yl)oxy)cyclohexane-1-carboxylic acid], the IC50 is 428 nM. In the case of `Cc1nc(-c2nnn(C)c2CNC(=O)N(C)[C@@H](C)c2ccccc2)ccc1O[C@H]1CCC[C@H](C(=O)O)C1` [Example 132, (1S,3S)-3-((2-methyl-6-(1-methyl-5-((3-methyl-3-((S)-1-phenylethyl)ureido)methyl)-1H-1,2,3-triazol-4-yl)pyridin-3-yl)oxy)cyclohexane-1-carboxylic acid], the IC50 stood at 276 nM. As for `Cc1nc(-c2nnn(C)c2CNS(=O)(=O)NCC2CCCC2)ccc1O[C@H]1CCC[C@H](C(=O)O)C1` [Example 226, (1S,3S)-3-((6-(5-(((N-(cyclopentylmethyl)sulfamoyl)amino)methyl)-1-methyl-1H-1,2,3-triazol-4-yl)-2-methylpyridin-3-yl)oxy)cyclohexane-1-carboxylic acid], the IC50 was 1100 nM. `Cc1nc(-c2nnn(C)c2CNC(=O)N(C)C(C)C)ccc1O[C@H]1CCC[C@H](C(=O)O)C1` [Example 134, (1S,3S)-3-((6-(5-((3-isopropyl-3-methylureido)methyl)-1-methyl-1H-1,2,3-triazol-4-yl)-2-methylpyridin-3-yl)oxy)cyclohexane-1-carboxylic acid]: the IC50 worked out at 519 nM. On to `Cc1nc(-c2nnn(C)c2NC(=O)OCC(C)(C)C)ccc1O[C@H]1CCC[C@H](C(=O)O)C1` [Example 67, (1S,3S)-3-((2-methyl-6-(1-methyl-5-(((neopentyloxy)carbonyl)amino)-1H-1,2,3-triazol-4-yl)pyridin-3-yl)oxy)cyclohexane-1-carboxylic acid], for which the IC50 amounted to 72 nM. Same read-out and setting: with `CCCCNC(=O)NCc1c(-c2ccc(O[C@H]3CCC[C@H](C(=O)O)C3)c(CC)n2)nnn1C` [Example 151, (1S,3S)-3-((6-(5-((3-butyl-ureido)methyl)-1-methyl-1H-1,2,3-triazol-4-yl)-2-ethylpyridin-3-yl)oxy)cyclohexane-1-carboxylic acid] the figure was 647 nM. Consider `Cc1nc(-c2nnn(C)c2NC(=O)OCC2CCCCC2)ccc1O[C@H]1CCC[C@H](C(=O)O)C1` [Example 76, (1S,3S)-3-((6-(5-(((cyclohexyl-methoxy)carbonyl)amino)-1-methyl-1H-1,2,3-triazol-4-yl)-2-methyl-pyridin-3-yl)oxy)cyclohexane-1-carboxylic acid], for which the IC50 came to 19 nM.

As to `Cn1nnc(-c2ccc(O[C@@H]3CCC[C@@H](C(=O)O)C3)cc2)c1CNC(=O)OCCC1CC1` (racemic) [Example 39, (±)-trans-3-(4-(5-((((2-cyclopropylethoxy)carbonyl)amino)methyl)-1-methyl-1H-1,2,3-triazol-4-yl)phenoxy)cyclohexane-1-carboxylic acid], the IC50 amounted to 457 nM. Consider `CCCC(NC(=O)NCc1c(-c2ccc(O[C@H]3CCC[C@H](C(=O)O)C3)c(C)n2)nnn1C)c1ccccc1` (mixture of isomers) [Example 119, (1S,3S)-3-((2-methyl-6-(1-methyl-5-((3-(1-phenylbutyl)ureido)methyl)-1H-1,2,3-triazol-4-yl)pyridin-3-yl)oxy)cyclo-hexane-1-carboxylic acid], for which the IC50 stood at 187 nM. The same measure, in the same setting: the result for `Cc1nc(-c2nnn(C)c2NC(=O)OC2CC3(CC3)C2)ccc1O[C@H]1CCC[C@H](C(=O)O)C1` [Example 225, (1S,3S)-3-((2-methyl-6-(1-methyl-5-(((spiro[2.3]hexan-5-yloxy)carbonyl)amino)-1H-1,2,3-triazol-4-yl)pyridin-3-yl)oxy)cyclohexane-1-carboxylic acid] reads 181 nM; that for `Cc1nc(-c2nnn(C)c2NC(=O)OCC2CC2C)ccc1O[C@H]1CCC[C@H](C(=O)O)C1` (mixture of isomers) [Example 223, (1S,3S)-3((2-methyl-6-(1-methyl-5-((((2-methylcyclopropyl)methoxy)carbonyl)amino)-1H-1,2,3-triazol-4-yl)pyridin-3-yl)oxy)cyclohexane-1-carboxylic acid (mixture of cyclopropyl diastereomers)], 52 nM. As for `CC(C)COC(=O)NCc1c(-c2ccc(O[C@H]3CCC[C@H](C(=O)O)C3)cn2)nnn1C` [Example 29, (1S,3S)-3-((6-(5-(((isobutoxycarbonyl)amino)methyl)-1-methyl-1H-1,2,3-triazol-4-yl)pyridin-3-yl)oxy)cyclohexane-1-carboxylic acid], the IC50 was 179 nM. Still for that read-out and setting: the result for `Cc1nc(-c2nnn(C)c2CNC(=O)OC2CC3(CC3)C2)c(F)cc1O[C@H]1CCC[C@H](C(=O)O)C1` [Example 214, (1S,3S)-3-((5-fluoro-2-methyl-6-(1-methyl-5-((((spiro[2.3]hexan-5-yloxy)carbonyl)amino)methyl)-1H-1,2,3-triazol-4-yl)pyridin-3-yl)oxy)cyclohexane-1-carboxylic acid] reads 129 nM; that for `CC[C@H](C)COC(=O)N(C)Cc1c(-c2ccc(O[C@H]3CCC[C@H](C(=O)O)C3)c(C)n2)nnn1C` [Example 2, (1S,3S)-3-((2-Methyl-6-(1-methyl-5-((methyl(((S)-2-methylbutoxy)carbonyl)amino)methyl)-1H-1,2,3-triazol-4-yl)pyridin-3-yl)oxy)cyclohexanecarboxylic acid], 29 nM.

`CCCCOC(=O)NCc1c(-c2ccc(O[C@H]3CCC[C@H](C(=O)O)C3)c(C(F)F)n2)nnn1C` [Example 100, (1S,3S)-3-((6-(5-(((butoxycarbonyl)amino)methyl)-1-methyl-1H-1,2,3-triazol-4-yl)-2-(difluoromethyl)pyridin-3-yl)oxy)cyclohexane-1-carboxylic acid]: the IC50 turned out to be 39 nM.

Regarding `CCc1nc(-c2nnn(C)c2CNC(=O)OCc2ccccc2)ccc1O[C@H]1CCC[C@H](C(=O)O)C1` [Example 43, (1S,3S)-3-((6-(5-((((benzyloxy)carbonyl)amino)methyl)-1-methyl-1H-1,2,3-triazol-4-yl)-2-ethylpyridin-3-yl)oxy)cyclohexne-1-carboxylic acid], the IC50 stood at 8 nM. As to `CCCOC(=O)Nc1c(-c2ccc(O[C@H]3CCC[C@H](C(=O)O)C3)c(CC)n2)nnn1C` [Example 233, (1S,3S)-3-[(2-ethyl-6-{1-methyl-5-[(propoxycarbonyl)amino]-1H-1,2,3-triazol-4-yl}pyridin-3-yl)oxy]cyclo-hexane-1-carboxylic acid], the IC50 worked out at 1040 nM. With `CCCCOC(=O)NCc1c(-c2ccc(O[C@H]3CCC[C@H](C(=O)O)C3)c(C(F)(F)F)n2)nnn1C` [Example 94, (1S,3S)-3-((6-(5-(((butoxycarbonyl)amino)methyl)-1-methyl-1H-1,2,3-triazol-4-yl)-2-(trifluoromethyl)pyridin-3-yl)oxy)cyclohexane-1-carboxylic acid], the IC50 was 14 nM. As to `Cc1nc(-c2nnn(C)c2CNC(=O)NC(C)C(C)C)ccc1O[C@H]1CCC[C@H](C(=O)O)C1` (single isomer, unassigned) [Example 126], the IC50 was determined as 611 nM.

The experiment is the same for the next values; noted with them: human LPA1 functional antagonist assay; read-out: hLPA1 IC50.
As for `Cc1nc(-c2nnn(C)c2CNC(=O)OCCC(C)(F)F)ccc1O[C@H]1CCC[C@H](C(=O)O)C1` [Example 202, (1S,3S)-3-((6-(5-((((3,3-difluorobutoxy)carbonyl)amino)methyl)-1-methyl-1H-1,2,3-triazol-4-yl)-2-methylpyridin-3-yl)oxy) cyclo-hexane-1-carboxylic acid], the IC50 is 86 nM. As to `Cc1nc(-c2nnn(C)c2CNC(=O)OCCCCC(F)(F)F)ccc1O[C@H]1CCC[C@H](C(=O)O)C1` [Example 166, (1S,3S)-3-((2-methyl-6-(1-methyl-5-(((((5,5,5-trifluoropentyl)oxy)carbonyl)amino)methyl)-1H-1,2,3-triazol-4-yl)pyridin-3-yl)oxy)cyclohexane-1-carboxylic acid], the IC50 was 121 nM. With `Cc1nc(-c2nnn(C)c2CNC(=O)O[C@@H](C)C2CC2)ccc1O[C@H]1CCC[C@H](C(=O)O)C1` [Example 176, (1S,3S)-3-((6-(5-(((((S)-1-cyclo-propylethoxy)carbonyl)amino)methyl)-1-methyl-1H-1,2,3-triazol-4-yl)-2-methylpyridin-3-yl)oxy)cyclo-hexane-1-carboxylic acid], the IC50 was found to be 106 nM. Regarding `Cc1nc(-c2nnn(C)c2CNC(=O)OCCC(F)(F)F)ccc1O[C@H]1CCC[C@H](C(=O)O)C1` [Example 181, (1S,3S)-3-((2-methyl-6-(1-methyl-5-((((3,3,3-trifluoropropoxy)carbonyl)amino)methyl)-1H-1,2,3-triazol-4-yl)pyridin-3-yl)oxy)cyclohexane-1-carboxylic acid], the half-maximal inhibitory concentration (IC50) came to 96 nM.

For the origin of these results see patent US11697646B2, “Triazole N-linked carbamoyl cyclohexyl acids as LPA antagonists” (BRISTOL-MYERS SQUIBB COMPANY, priority 2017, dated 2023).
